pKi: −log10 of the molar value.
target: HPK1 (Homo sapiens (Human), UniProt Q92918); experiment: HPK1 Kinase Binding Assay; conditions: LanthaScreen tracer 222 binding, active HPK1, one hour incubation at 25° C.
Procedure: A stock solution of 1 mM test compound was prepared in DMSO. The compound plate was prepared by 3-fold and 11-point serial dilutions. 0.1 μL of the compound in DMSO was transferred from the compound plate to the white 384 well polystyrene plates. The assay buffer contained 50 mM HEPES, pH 7.5, 0.01% Tween-20, 5 mM MgCl2, 0.01% BSA, and 5 mM DTT. 5 μl of 4 nM active HPK1 (SignalChem M23-11G) prepared in the buffer was added to the plate. The enzyme concentration given was based on the given stock concentration reported by the vender. 5 μl of 18 nM tracer 222 (ThermoFisher PV6121) and 4 nM LanthaScreen Eu-Anti GST antibody (ThermoFisher PV5595) were added. After one hour incubation at 25° C., the plates were read on a PHERAstar FS plate reader (BMG Labtech). Ki values were determined.

HPK1, sequence (Q92918 1-346): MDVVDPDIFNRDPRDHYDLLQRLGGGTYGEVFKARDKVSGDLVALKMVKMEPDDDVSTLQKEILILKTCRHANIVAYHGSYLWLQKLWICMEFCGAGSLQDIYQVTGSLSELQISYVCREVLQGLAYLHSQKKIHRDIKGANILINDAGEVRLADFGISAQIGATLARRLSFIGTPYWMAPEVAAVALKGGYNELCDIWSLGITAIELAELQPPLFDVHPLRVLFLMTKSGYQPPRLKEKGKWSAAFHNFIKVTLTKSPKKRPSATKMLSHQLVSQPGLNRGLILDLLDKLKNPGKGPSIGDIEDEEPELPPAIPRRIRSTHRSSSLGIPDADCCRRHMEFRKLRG

COc1cccc(F)c1-c1ncc2[nH]nc(-c3ccc(C4CC4)cc3)c2n1 [Example 39, 3-(4-Cyclopropylphenyl)-5-(2-fluoro-6-methoxyphenyl)-1H-pyrazolo[4,3-d]pyrimidine] and COc1cccc(F)c1-c1ncc2[nH]nc(-c3ccc(C4CCOCC4)cc3)c2n1 [Example 43, 5-(2-Fluoro-6-methoxyphenyl)-3-(4-(tetrahydro-2H-pyran-4-yl)phenyl)-1H-pyrazolo[4,3-d]pyrimidine] cannot be ordered by pKi: ≥ 7.00 for the first, ≥ 7.00 for the second.

COc1cccc(F)c1-c1ncc2[nH]nc(-c3ccc(N4CCCCC4)cc3)c2n1 [Example 40, 5-(2-Fluoro-6-methoxyphenyl)-3-(4-(piperidin-1-yl)phenyl)-1H-pyrazolo[4,3-d]pyrimidine] and Cc1cccc(F)c1-c1ncc2[nH]nc(-c3ccc(N4CCNCC4)cc3)c2n1 [Example 59, 5-(2-Fluoro-6-methylphenyl)-3-(4-(piperazin-1-yl)phenyl)-1H-pyrazolo[4,3-d]pyrimidine] cannot be ordered by pKi: ≥ 7.00 for the first, ≥ 7.00 for the second.

COc1cccc(F)c1-c1ncc2[nH]nc(-c3ccc(CN)cc3)c2n1 [Example 41, (4-(5-(2-Fluoro-6-methoxyphenyl)-1H-pyrazolo[4,3-d]pyrimidin-3-yl)phenyl)methanamine] and COc1cccc(F)c1-c1ncc2[nH]nc(-c3ccc(C(C)(C)C#N)cc3)c2n1 [Example 42, 2-(4-(5-(2-Fluoro-6-methoxyphenyl)-1H-pyrazolo[4,3-d]pyrimidin-3-yl)phenyl)-2-methylpropanenitrile] cannot be ordered by pKi: ≥ 7.00 for the first, ≥ 7.00 for the second.

CN1CCN(c2ccc(-c3n[nH]c4cnc(-c5cccc(F)c5F)nc34)cc2)CC1 [Example 44, 5-(2,3-Difluorophenyl)-3-(4-(4-methylpiperazin-1-yl)phenyl)-1H-pyrazolo[4,3-d]pyrimidine] and CN1CCN(c2ccc(-c3n[nH]c4cnc(-c5cccc(C(N)=O)c5F)nc34)cc2)CC1 [Example 46, 2-Fluoro-3-(3-(4-(4-methylpiperazin-1-yl)phenyl)-1H-pyrazolo[4,3-d]pyrimidin-5-yl)benzamide] cannot be ordered by pKi: ≥ 7.00 for the first, ≥ 7.00 for the second.

COc1ccc(F)c(F)c1-c1ncc2[nH]nc(-c3ccc(N4CCN(C)CC4)cc3)c2n1 [Example 45, 5-(2,3-Difluoro-6-methoxyphenyl)-3-(4-(4-methylpiperazin-1-yl)phenyl)-1H-pyrazolo[4,3-d]pyrimidine] and CN1CCN(c2ccc(-c3n[nH]c4cnc(-c5c(F)ccc6c5CCNC6)nc34)cc2)CC1 [Example 56, 6-Fluoro-5-(3-(4-(4-methylpiperazin-1-yl)phenyl)-1H-pyrazolo[4,3-d]pyrimidin-5-yl)-1,2,3,4-tetrahydroisoquinoline] cannot be ordered by pKi: ≥ 7.00 for the first, ≥ 7.00 for the second.

CNC(=O)c1cccc(-c2ncc3[nH]nc(-c4ccc(N5CCN(C)CC5)cc4)c3n2)c1F [Example 47, 2-Fluoro-N-methyl-3-(3-(4-(4-methylpiperazin-1-yl)phenyl)-1H-pyrazolo[4,3-d]pyrimidin-5-yl)benzamide] and COc1cccc(F)c1-c1ncc2[nH]nc(/C=C/c3ccc(N4CCN(C)CC4)cc3)c2n1 [Example 55, (E)-5-(2-Fluoro-6-methoxyphenyl)-3-(4-(4-methylpiperazin-1-yl)styryl)-1H-pyrazolo[4,3-d]pyrimidine] cannot be ordered by pKi: 6.30 to 7.00 for the first, ≥ 7.00 for the second.

COc1cccc(F)c1-c1ncc2[nH]nc(-c3cnn(-c4ccccc4)c3)c2n1 [Example 48, 5-(2-Fluoro-6-methoxyphenyl)-3-(1-phenyl-1H-pyrazol-4-yl)-1H-pyrazolo[4,3-d]pyrimidine] and COc1cccc(F)c1-c1ncc2[nH]nc(-c3ccn(C)c(=O)c3)c2n1 [Example 49, 4-(5-(2-Fluoro-6-methoxyphenyl)-1H-pyrazolo[4,3-d]pyrimidin-3-yl)-1-methylpyridin-2(1H)-one] cannot be ordered by pKi: ≥ 7.00 for the first, ≥ 7.00 for the second.

COc1cccc(F)c1-c1ncc2[nH]nc(-c3ccnc(N4CCNCC4)c3)c2n1 [Example 50, 5-(2-Fluoro-6-methoxyphenyl)-3-(2-(piperazin-1-yl)pyridin-4-yl)-1H-pyrazolo[4,3-d]pyrimidine] and COc1cccc(F)c1-c1ncc2[nH]nc(-c3ccc(N4CCNCC4)nc3)c2n1 [Example 52, 5-(2-Fluoro-6-methoxyphenyl)-3-(6-(piperazin-1-yl)pyridin-3-yl)-1H-pyrazolo[4,3-d]pyrimidine] cannot be ordered by pKi: ≥ 7.00 for the first, ≥ 7.00 for the second.

COc1cccc(F)c1-c1ncc2[nH]nc(-c3ccnc(N4CCN(C)CC4)c3)c2n1 [Example 51, 5-(2-Fluoro-6-methoxyphenyl)-3-(2-(4-methylpiperazin-1-yl)pyridin-4-yl)-1H-pyrazolo[4,3-d]pyrimidine] and COc1cccc(F)c1-c1ncc2[nH]nc(-c3ccc(N4CCN(C(C)=O)CC4)nc3)c2n1 [Example 54, 1-(4-(5-(5-(2-Fluoro-6-methoxyphenyl)-1H-pyrazolo[4,3-d]pyrimidin-3-yl)pyridin-2-yl)piperazin-1-yl)ethan-1-one] cannot be ordered by pKi: ≥ 7.00 for the first, ≥ 7.00 for the second.

COc1cccc(F)c1-c1ncc2[nH]nc(-c3ccc(N4CCOCC4)nc3)c2n1 [Example 53, 4-(5-(5-(2-Fluoro-6-methoxyphenyl)-1H-pyrazolo[4,3-d]pyrimidin-3-yl)pyridin-2-yl)morpholine] and Cc1cccc(F)c1-c1ncc2[nH]nc(-c3ccc(N4CCC(O)C4)cc3)c2n1 (stereo not shown) [Example 60, 1-(4-(5-(2-Fluoro-6-methylphenyl)-1H-pyrazolo[4,3-d]pyrimidin-3-yl)phenyl)pyrrolidin-3-ol] cannot be ordered by pKi: ≥ 7.00 for the first, ≥ 7.00 for the second.

Cc1cccc(F)c1-c1ncc2[nH]nc(-c3ccc(N4CCCC(O)C4)cc3)c2n1 (stereo not shown) [Example 57, 1-(4-(5-(2-Fluoro-6-methylphenyl)-1H-pyrazolo[4,3-d]pyrimidin-3-yl)phenyl)piperidin-3-ol] and Cc1cccc(F)c1-c1ncc2[nH]nc(-c3ccc(N4CCC(C#N)CC4)cc3)c2n1 [Example 58, 1-(4-(5-(2-Fluoro-6-methylphenyl)-1H-pyrazolo[4,3-d]pyrimidin-3-yl)phenyl)piperidine-4-carbonitrile] cannot be ordered by pKi: ≥ 7.00 for the first, ≥ 7.00 for the second.

CNCc1cc(F)c(-c2ncc3[nH]nc(-c4ccc(C(=O)NC)nc4)c3n2)c(F)c1 [Example 61, 5-(5-(2,6-Difluoro-4-((methylamino)methyl)phenyl)-1H-pyrazolo[4,3-d]pyrimidin-3-yl)-N-methylpicolinamide] and CNCc1cc(F)c(-c2ncc3[nH]nc(-c4ccc(C(=O)NC)c(F)c4)c3n2)c(F)c1 [Example 62, 4-(5-(2,6-Difluoro-4-((methylamino)methyl)phenyl)-1H-pyrazolo[4,3-d]pyrimidin-3-yl)-2-fluoro-N-methylbenzamide] cannot be ordered by pKi: ≥ 7.00 for the first, ≥ 7.00 for the second.

CNCc1cc(F)c(-c2ncc3[nH]nc(-c4ccc(OC)cc4)c3n2)c(F)c1 [Example 63, 1-(3,5-Difluoro-4-(3-(4-methoxyphenyl)-1H-pyrazolo[4,3-d]pyrimidin-5-yl)phenyl)-N-methylmethanamine] and CNCc1cc(F)c(-c2ncc3[nH]nc(-c4cccc(C#N)c4)c3n2)c(F)c1 [Example 64, 3-(5-(2,6-Difluoro-4-((methylamino)methyl)phenyl)-1H-pyrazolo[4,3-d]pyrimidin-3-yl)benzonitrile] cannot be ordered by pKi: ≥ 7.00 for the first, ≥ 7.00 for the second.

CNCc1cc(F)c(-c2ncc3[nH]nc(-c4ccc(C5CCNCC5)cc4)c3n2)c(F)c1 [Example 65, 1-(3,5-Difluoro-4-(3-(4-(piperidin-4-yl)phenyl)-1H-pyrazolo[4,3-d]pyrimidin-5-yl)phenyl)-N-methylmethanamine] and CNCc1cc(F)c(-c2ncc3[nH]nc(-c4ccc(C5CCOCC5)cc4)c3n2)c(F)c1 [Example 66, 1-(3,5-Difluoro-4-(3-(4-(tetrahydro-2H-pyran-4-yl)phenyl)-1H-pyrazolo[4,3-d]pyrimidin-5-yl)phenyl)-N-methylmethanamine] cannot be ordered by pKi: ≥ 7.00 for the first, ≥ 7.00 for the second.

CCN1CCN(c2ccc(-c3n[nH]c4cnc(-c5c(F)cc(CNC)cc5F)nc34)cc2)CC1 [Example 67, 1-(4-(3-(4-(4-Ethylpiperazin-1-yl)phenyl)-1H-pyrazolo[4,3-d]pyrimidin-5-yl)-3,5-difluorophenyl)-N-methylmethanamine] and CNCc1cc(F)c(-c2ncc3[nH]nc(-c4ccc(N5CCN(CCO)CC5)cc4)c3n2)c(F)c1 [Example 73, 2-(4-(4-(5-(2,6-Difluoro-4-((methylamino)methyl)phenyl)-1H-pyrazolo[4,3-d]pyrimidin-3-yl)phenyl)piperazin-1-yl)ethanol] cannot be ordered by pKi: ≥ 7.00 for the first, ≥ 7.00 for the second.

CNCc1cc(F)c(-c2ncc3[nH]nc(-c4cnc(N5CCOCC5)c(C#N)c4)c3n2)c(F)c1 [Example 68, 5-(5-(2,6-Difluoro-4-((methylamino)methyl)phenyl)-1H-pyrazolo[4,3-d]pyrimidin-3-yl)-2-morpholinonicotinonitrile] and CNCc1cc(F)c(-c2ncc3[nH]nc(-c4ccnc(N5CCOCC5)c4F)c3n2)c(F)c1 [Example 69, 1-(3,5-Difluoro-4-(3-(3-fluoro-2-morpholinopyridin-4-yl)-1H-pyrazolo[4,3-d]pyrimidin-5-yl)phenyl)-N-methylmethanamine] cannot be ordered by pKi: ≥ 7.00 for the first, ≥ 7.00 for the second.

CNCc1cc(F)c(-c2ncc3[nH]nc(-c4ccc(N5CCN(CC(C)(C)O)CC5)nc4)c3n2)c(F)c1 [Example 70, 1-(4-(5-(5-(2,6-Difluoro-4-((methylamino)methyl)phenyl)-1H-pyrazolo[4,3-d]pyrimidin-3-yl)pyridin-2-yl)piperazin-1-yl)-2-methylpropan-2-ol] and CNCc1cc(F)c(-c2ncc3[nH]nc(-c4ccc(N5CCCC(C)(CO)C5)nc4)c3n2)c(F)c1 (stereo not shown) [Example 71, (1-(5-(5-(2,6-Difluoro-4-((methylamino)methyl)phenyl)-1H-pyrazolo[4,3-d]pyrimidin-3-yl)pyridin-2-yl)-3-methylpiperidin-3-yl)methanol] cannot be ordered by pKi: ≥ 7.00 for the first, ≥ 7.00 for the second.
